Data from US20200309767A1, “HIGH-THROUGHPUT IMAGING-BASED METHODS FOR PREDICTING CELL-TYPE-SPECIFIC TOXICITY OF XENOBIOTICS WITH DIVERSE CHEMICAL STRUCTURES” (priority 2015, published 2020).
“Also recorded” adds a separate entry of the source. Where two headings read alike, the source gives them in different places.

Columns and labels:
[1] = system: human proximal tubular cells (PTCs); conditions: cited from earlier work
human kidney = conditions: cited from earlier work
liver = conditions: in vivo; cited from earlier work
HK-2 cells = conditions: previously observed (Wu et al.); cited from earlier work
[2] = system: histone H2AX phosphorylated on serine 139 (γH2AX); type: cell-based, human
lung = conditions: human, in vivo; cited from earlier work
primary PTCs = conditions: 1000 μg/mL

Row | Molecule | PTC Toxicity ([1]; human, in vivo) | PTC-toxic ([1]; human, in vivo) | Nephrotoxic (human kidney; in vivo) | Hepatotoxic (liver) | apoptotic responses (HK-2 cells) | change in γH2AX levels [2] | Pulmonotoxic (lung) | change in γH2AX levels ([2]; HPTC-B results) | cells with increased annexin-V levels (primary PTCs; 16 hours) [%] | increase in cell death rates (primary PTCs; within the measured period (16 hours)) | PTC Toxicity ([1]; known in vivo group, Toxic / Non-toxic) | PTC-toxic ([1]; known toxicity flag 1/0) | Nephrotoxic (human kidney; known human kidney toxicity flag 1/0)
1 | O=c1[nH]cc(F)c(=O)[nH]1 [5-Fluorouracil] | Toxic | 1 | 1 | 1 | lack of apoptotic responses |  |  |  |  |  |  |  | 
2 | N.N.[Cl][Pt][Cl] [Cisplatin] |  |  |  |  |  | increasing levels |  |  |  |  |  |  | 
3 | CCC[C@@H]1C[C@@H](C(=O)N[C@@H]([C@H]2O[C@H](SC)[C@H](O)[C@@H](O)[C@H]2O)[C@@H](C)O)N(C)C1 [Lincomycin] | Non-toxic | 0 | 1 | 0 |  | small or no change |  |  |  |  |  |  | 
4 | [Cl-].[Li+] [Lithium chloride] | Non-toxic | 0 | 1 | 0 |  | small or no change | 0 |  |  |  |  |  | 
5 | C[C@@H]1Cc2c(Cl)cc(C(=O)N[C@@H](Cc3ccccc3)C(=O)O)c(O)c2C(=O)O1 [Ochratoxin A] |  |  |  | 0 |  |  |  | increasing levels; also recorded: large increase | ~25 | very small or no increase | Toxic | 1 | 1
6 | C[n+]1ccc(-c2cc[n+](C)cc2)cc1 [Paraquat] | Toxic | 1 | 1 | 1 |  |  | 1 |  |  |  |  |  | 
7 | NC(=O)c1ncn([C@@H]2O[C@H](CO)[C@@H](O)[C@H]2O)n1 [Ribavirin] | Non-toxic | 0 | 0 | 0 |  | small or no change |  |  |  |  |  |  | 
8 | C[C@H](Cn1cnc2c(N)ncnc21)OCP(=O)(O)O [Tenofovir] | Toxic | 1 | 1 | 0 |  |  | 0 |  |  |  |  |  | 
9 | Gentamicin | Toxic | 1 | 1 | 0 | lack of apoptotic responses |  |  |  |  |  |  |  | 
